Measurements reported in ChEMBL document CHEMBL1201862, “PubChem BioAssay data set” (2004).
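Results reflect a 48-hour exposure of cells in 96-well plates to compound at five concentrations. Abbreviation: GI50, concentration required for 50% inhibition of growth.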 Active and inactive are the calls of the source. No stated cut-off is given here; in the data, active = GI50 up to about 1.1 µM and inactive = higher.

Key:
Assay in all cases: NCI-60 cell line screen, 48 h
EKVX = system: EKVX
M19-MEL = system: M19-MEL
M14 = system: M14
A549 = system: A549
HCC 2998 = system: HCC 2998
HL-60 = system: HL-60
NCI-H522 = system: NCI-H522
U-251 = system: U-251
SK-MEL-5 = system: SK-MEL-5
RXF 393 = system: RXF 393
SF-268 = system: SF-268
SNB-19 = system: SNB-19
Malme-3M = system: Malme-3M
OVCAR-8 = system: OVCAR-8
K562 = system: K562
DLD-1 = system: DLD-1
COLO 205 = system: COLO 205
SN12C = system: SN12C
SF-295 = system: SF-295
KM-20L2 = system: KM-20L2
HOP-92 = system: HOP-92
SW-620 = system: SW-620
SK-MEL-28 = system: SK-MEL-28
OVCAR-3 = system: OVCAR-3
SF-539 = system: SF-539
DMS-114 = system: DMS-114
SK-MEL-2 = system: SK-MEL-2
ACHN = system: ACHN
HT-29 = system: HT-29
UACC-62 = system: UACC-62
HOP-18 = system: HOP-18
CCRF-CEM = system: CCRF-CEM
HOP-62 = system: HOP-62
OVCAR-5 = system: OVCAR-5
UO-31 = system: UO-31
HCT-15 = system: HCT-15
TK-10 = system: TK-10
NCI-H226 = system: NCI-H226
786-0 = system: 786-0
RPMI-8226 = system: RPMI-8226
KM12 = system: KM12
SK-OV-3 = system: SK-OV-3
XF498 = system: XF498
HCT-116 = system: HCT-116
A498 = system: A498
IGROV-1 = system: IGROV-1
LXFL 529 = system: LXFL 529
UACC-257 = system: UACC-257
NCI-H23 = system: NCI-H23
SR = system: SR
RXF 631 = system: RXF 631
SNB-75 = system: SNB-75
MOLT-4 = system: MOLT-4
NCI-H460 = system: NCI-H460
LOX IMVI = system: LOX IMVI

C=CCCCn1ccc2ccccc21
GI50 (EKVX): > 100 µM (inactive) | GI50 (M19-MEL): > 100 µM (inactive) | GI50 (M14): > 100 µM (inactive) | GI50 (A549): > 100 µM (inactive) | GI50 (HCC 2998): > 100 µM (inactive) | GI50 (HL-60): > 100 µM (inactive) | GI50 (NCI-H522): > 100 µM (inactive) | GI50 (U-251): > 100 µM (inactive) | GI50 (SK-MEL-5): > 100 µM (inactive) | GI50 (RXF 393): > 100 µM (inactive) | GI50 (SF-268): > 100 µM (inactive) | GI50 (SNB-19): > 100 µM (inactive) | GI50 (Malme-3M): > 100 µM (inactive) | GI50 (OVCAR-8): > 100 µM (inactive) | GI50 (K562): > 100 µM (inactive) | GI50 (DLD-1): > 100 µM (inactive) | GI50 (COLO 205): > 100 µM (inactive) | GI50 (SN12C): > 100 µM (inactive) | GI50 (SF-295): > 100 µM (inactive) | GI50 (KM-20L2): > 100 µM (inactive) | GI50 (HOP-92): 7.45 µM (inactive) | GI50 (SW-620): > 100 µM (inactive) | GI50 (SK-MEL-28): > 100 µM (inactive) | GI50 (OVCAR-3): > 100 µM (inactive) | GI50 (SF-539): > 100 µM (inactive) | GI50 (DMS-114): > 100 µM (inactive) | GI50 (SK-MEL-2): > 100 µM (inactive) | GI50 (ACHN): > 100 µM (inactive) | GI50 (HT-29): > 100 µM (inactive) | GI50 (UACC-62): 75.9 µM (inactive) | GI50 (HOP-18): > 100 µM (inactive) | GI50 (CCRF-CEM): > 100 µM (inactive) | GI50 (HOP-62): > 100 µM (inactive) | GI50 (OVCAR-5): > 100 µM (inactive) | GI50 (UO-31): > 100 µM (inactive) | GI50 (HCT-15): > 100 µM | GI50 (TK-10): > 100 µM (inactive) | GI50 (NCI-H226): > 100 µM (inactive) | GI50 (786-0): > 100 µM (inactive) | GI50 (RPMI-8226): > 100 µM (inactive) | GI50 (KM12): > 100 µM (inactive) | GI50 (SK-OV-3): > 100 µM (inactive) | GI50 (XF498): > 100 µM (inactive) | GI50 (HCT-116): > 100 µM (inactive) | GI50 (A498): > 100 µM (inactive) | GI50 (IGROV-1): > 100 µM (inactive) | GI50 (LXFL 529): > 100 µM (inactive) | GI50 (UACC-257): > 100 µM (inactive) | GI50 (NCI-H23): > 100 µM (inactive) | GI50 (SR): > 100 µM (inactive) | GI50 (RXF 631): > 100 µM (inactive) | GI50 (SNB-75): > 100 µM (inactive) | GI50 (MOLT-4): > 100 µM (inactive) | GI50 (NCI-H460): > 100 µM (inactive) | GI50 (LOX IMVI): > 100 µM (inactive)
